We go through 15 compounds from US10570129B2 (Zoetis Services LLC, priority 2015, dated 2020).

Assay [1] concerns D. immitis microfilariae. The experiment in a line: Dirofilaria immitis, microfilariae (DiMF) in vitro motility assay. It counts as cell-based. Conditions: Dirofilaria immitis, 72 h, read-out: DiMF minimally effective dose (MEC).
Assay [2] concerns Trichostrongylus colubriformis. The experiment in a line: Jird efficacy model. It counts as in vivo. Conditions: Trichostrongylus colubriformis, sc, 96 h, read-out: Jird % (percentage efficacy).
Assay [3] concerns Haemonchus contortus L3. The experiment in a line: microbe, parasite or virus in culture. It counts as cell-based. The settings on record: Haemonchus contortus, 96 h, read-out: HcL3 Minimal Effective Concentration (MEC).

As for `O=C(NCc1ccnc(Cl)c1)n1c2c(c3cc(Cl)ccc31)CN(C/C=C/c1ccc(F)c(F)c1)CC2` [Example 240, (E)-8-chloro-N-((2-chloropyridin-4-yl)methyl)-2-(3-(3,4-difluorophenyl)allyl)-1,2,3,4-tetrahydro-5H-pyrido[4,3-b]indole-5-carboxamide], the minimal effective concentration in assay [1] is 3.3 µM; in assay [3], 0.2 µM. The inhibition in vivo at 10 mg/kg in assay [2] is 98%.

Turning to `N#Cc1ccc2c(c1)c1c(n2C(=O)NCc2ccnc(Cl)c2)CCN(C/C=C/c2ccc(F)cc2F)C1` [Example 88, (E)-N-((2-chloropyridin-4-yl)methyl)-8-cyano-2-(3-(2,4-difluorophenyl)allyl)-1,2,3,4-tetrahydro-5H-pyrido[4,3-b]indole-5-carboxamide], the minimal effective concentration is 3.3 µM in assay [1] and 0.1 µM in assay [3]. In addition, in assay [2], the inhibition in vivo at 10 mg/kg worked out at 99%.

In the case of `O=C(NCc1ccnc(Cl)c1)n1c2c(c3cc(N4CCOCC4)ccc31)CN(C/C=C/c1ccc(Cl)cc1)CC2` [Example 505, (E)-2-(3-(4-chlorophenyl)allyl)-N-((2-chloropyridin-4-yl)methyl)-8-morpholino-1,2,3,4-tetrahydro-5H-pyrido[4,3-b]indole-5-carboxamide], the minimal effective concentration in assay [1] is 13.5 µM; in assay [3] it was 10 µM. Besides, the inhibition in vivo at 10 mg/kg in assay [2] was 100%.

As for `N#Cc1ccc(/C=C/CN2CCc3c(c4c(F)cc(C(F)(F)F)cc4n3C(=O)NCc3ccnc(Cl)c3)C2)cc1` [Example 321, (E)-N-((2-chloropyridin-4-yl)methyl)-2-(3-(4-cyanophenyl)allyl)-9-fluoro-7-(trifluoromethyl)-1,2,3,4-tetrahydro-5H-pyrido[4,3-b]indole-5-carboxamide], the values for the minimal effective concentration in assay [1] and in assay [3] were 5.7 µM and 2.4 µM, respectively. The inhibition in vivo at 10 mg/kg in assay [2] stood at 100%.

For `O=C(NCc1ccnc(F)c1)n1c2c(c3ccc(C(F)(F)F)cc31)CN(C/C=C/c1ccc(Cl)c(F)c1)CC2` [Example 163, (E)-2-(3-(4-chloro-3-fluorophenyl)allyl)-N-((2-fluoropyridin-4-yl)methyl)-7-(trifluoromethyl)-1,2,3,4-tetrahydro-5H-pyrido[4,3-b]indole-5-carboxamide], the minimal effective concentration was 5.7 µM in assay [1] and 1.8 µM in assay [3]. Moreover, the inhibition in vivo at 10 mg/kg in assay [2] was determined as 100%.

Take `O=C(NCc1ccnc(F)c1)n1c2c(c3cc(C(F)(F)F)ccc31)CN(C/C=C/c1ccc(F)c(F)c1)CC2` [Example 419, (E)-2-(3-(3,4-difluorophenyl)allyl)-N-((2-fluoropyridin-4-yl)methyl)-8-(trifluoromethyl)-1,2,3,4-tetrahydro-5H-pyrido[4,3-b]indole-5-carboxamide]: the values for the minimal effective concentration in assay [1] and in assay [3] were 10 µM and 1 µM, respectively. Moreover, the inhibition in vivo at 10 mg/kg in assay [2] is 100%.

Consider `N#Cc1ccc2c3c(n(C(=O)NCc4ccnc(Cl)c4)c2c1)CCN(C/C=C/c1ccc(F)c(F)c1F)C3` [Example 13, (E)-N-((2-chloropyridin-4-yl)methyl)-7-cyano-2-(3-(2,3,4-trifluorophenyl)allyl)-1,2,3,4-tetrahydro-5H-pyrido[4,3-b]indole-5-carboxamide], for which the figures for the minimal effective concentration in assay [1] and in assay [3] were 10 µM and 1.8 µM, respectively. Further, the inhibition in vivo at 10 mg/kg in assay [2] was found to be 100%.

Turning to `N#Cc1ccc2c3c(n(C(=O)NCc4ccnc(Cl)c4)c2c1)CCN(C/C=C/c1cc(F)cc(F)c1)C3` [Example 30, (E)-N-((2-chloropyridin-4-yl)methyl)-7-cyano-2-(3-(3,5-difluorophenyl)allyl)-1,2,3,4-tetrahydro-5H-pyrido[4,3-b]indole-5-carboxamide], the minimal effective concentration in assay [1] was 10 µM; in assay [3], 0.5 µM. In addition, in assay [2], the inhibition in vivo at 10 mg/kg turned out to be 100%.

On to `N#Cc1ccc2c(c1)c1c(n2C(=O)NCc2ccnc(F)c2)CCN(C/C=C/c2ccc(Br)cc2F)C1` [Example 102, (E)-2-(3-(4-bromo-2-fluorophenyl)allyl)-8-cyano-N-((2-fluoropyridin-4-yl)methyl)-1,2,3,4-tetrahydro-5H-pyrido[4,3-b]indole-5-carboxamide], for which the minimal effective concentration in assay [1] amounted to 3.3 µM; in assay [3], 0.3 µM. The inhibition in vivo at 10 mg/kg in assay [2] was 97%.

Take `N#Cc1ccc2c(c1)c1c(n2C(=O)NCc2ccnc(F)c2)CCN(C/C=C/c2ccc(Cl)c(Cl)c2)C1` [Example 122, (E)-8-cyano-2-(3-(3,4-dichlorophenyl)allyl)-N-((2-fluoropyridin-4-yl)methyl)-1,2,3,4-tetrahydro-5H-pyrido[4,3-b]indole-5-carboxamide]: the minimal effective concentration in assay [1] turned out to be 18.2 µM; in assay [3], 1 µM. For the same compound, the inhibition in vivo at 10 mg/kg in assay [2] is 100%.

In the case of `O=C(NCc1ccnc(Cl)c1)n1c2c(c3c(Cl)c(F)ccc31)CN(C/C=C/c1ccc(F)cc1)CC2` [Example 307, (E)-9-chloro-N-((2-chloropyridin-4-yl)methyl)-8-fluoro-2-(3-(4-fluorophenyl)allyl)-1,2,3,4-tetrahydro-5H-pyrido[4,3-b]indole-5-carboxamide], the minimal effective concentration in assay [1] amounted to 3.3 µM; in assay [3] it was 0.5 µM. Also, the inhibition in vivo at 10 mg/kg in assay [2] turned out to be 100%.

`O=C(NCc1ccnc(F)c1)n1c2c(c3cc4c(cc31)COC4)CN(C/C=C/c1ccc(Cl)cc1)CC2` [Example 483, (E)-8-(3-(4-chlorophenyl)allyl)-N-((2-fluoropyridin-4-yl)methyl)-1,3,6,7,8,9-hexahydro-5H-furo[3,4-f]pyrido[4,3-b]indole-5-carboxamide]: the minimal effective concentration in assay [1] was determined as 3.3 µM; in assay [3], 0.5 µM. Also, the inhibition in vivo at 10 mg/kg in assay [2] came to 100%.

As to `CS(=O)(=O)c1ccc2c(c1)c1c(n2C(=O)NCc2ccnc(Cl)c2)CCN(C/C=C/c2ccc(F)cc2)C1` [Example 459, (E)-N-((2-chloropyridin-4-yl)methyl)-2-(3-(4-fluorophenyl)allyl)-8-(methylsulfonyl)-1,2,3,4-tetrahydro-5H-pyrido[4,3-b]indole-5-carboxamide], the minimal effective concentration in assay [1] is 5.7 µM; in assay [3] it was 1 µM. Further, the inhibition in vivo at 10 mg/kg in assay [2] was found to be 92%.

On to `O=C(NCc1ccnc(F)c1)n1c2c(c3ccc(OC(F)(F)F)cc31)CN(C/C=C/c1ccc(Cl)cc1)CC2` [Example 379, (E)-2-(3-(4-chlorophenyl)allyl)-N-((2-fluoropyridin-4-yl)methyl)-7-(trifluoromethoxy)-1,2,3,4-tetrahydro-5H-pyrido[4,3-b]indole-5-carboxamide], for which the minimal effective concentration in assay [1] amounted to 5.7 µM; in assay [3] it was 1 µM. Also, the inhibition in vivo at 10 mg/kg in assay [2] was found to be 100%.

As to `O=C(NCc1ccnc(Cl)c1)n1c2c(c3ccc(C(F)(F)F)cc31)CN(C/C=C/c1ccc(Cl)cc1)CC2` [Example 156, (E)-2-(3-(4-chlorophenyl)allyl)-N-((2-chloropyridin-4-yl)methyl)-7-(trifluoromethyl)-1,2,3,4-tetrahydro-5H-pyrido[4,3-b]indole-5-carboxamide], the minimal effective concentration in assay [1] came to 33 µM; in assay [3], 0.5 µM. In assay [2], the inhibition in vivo at 10 mg/kg came to 99%.
